In patent US8916593B2, “Alkoxy-substituted 2-aminopyridines as ALK inhibitors” (Pfizer Inc., priority 2010, dated 2014) one finds Ki and IC50 data, which are given here for 28 compounds.

Each structure is given as a SMILES string. Where only a bound is given, the exact number is not on record here.

For experiment [1], the target named is T1, human recombinant wild-type ALK kinase domain (amino acids 1093-1411) (Homo sapiens, UniProt Q9UM73).
T1 construct: ALK kinase domain (amino acids 1093-1411); made in house
T1 sequence (Q9UM73 1093-1411): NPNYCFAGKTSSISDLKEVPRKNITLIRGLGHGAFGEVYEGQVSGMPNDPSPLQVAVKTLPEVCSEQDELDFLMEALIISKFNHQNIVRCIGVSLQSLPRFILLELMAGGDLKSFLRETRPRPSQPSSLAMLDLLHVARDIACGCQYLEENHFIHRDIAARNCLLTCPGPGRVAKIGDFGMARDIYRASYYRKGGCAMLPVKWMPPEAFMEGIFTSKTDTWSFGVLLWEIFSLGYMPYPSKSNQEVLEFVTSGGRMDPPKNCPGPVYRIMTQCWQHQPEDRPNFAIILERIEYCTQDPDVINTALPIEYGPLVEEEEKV
The experiment can be described thus: ALK enzyme assay 2 (microfluidic mobility shift assay).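 Note: kinase reaction run 1 h at room temperature, conversion quantified by electrophoretic separation of fluorescent peptide substrate from phosphorylated product, about 15-20% turnover without inhibitor.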 It is filed as biochemical.
Method: The reactions were incubated for 1 h at room temperature, stopped by the addition of 0.1 M EDTA, pH 8, and the extent of reactions (˜15-20% conversion with no inhibitor) was determined after electrophoretic separation of the fluorescently labeled peptide substrate and phosphorylated product on an LabChip EZ Reader II (Caliper Life Sciences, Hopkinton, Mass.).

Experiment [2] concerns the target EML4-ALK wt v1 in NIH-3T3 cells (Homo sapiens, UniProt Q9UM73).

EML4-ALK wt v1 in NIH-3T3 cells, sequence (Q9UM73 with tags, fused parts or gaps): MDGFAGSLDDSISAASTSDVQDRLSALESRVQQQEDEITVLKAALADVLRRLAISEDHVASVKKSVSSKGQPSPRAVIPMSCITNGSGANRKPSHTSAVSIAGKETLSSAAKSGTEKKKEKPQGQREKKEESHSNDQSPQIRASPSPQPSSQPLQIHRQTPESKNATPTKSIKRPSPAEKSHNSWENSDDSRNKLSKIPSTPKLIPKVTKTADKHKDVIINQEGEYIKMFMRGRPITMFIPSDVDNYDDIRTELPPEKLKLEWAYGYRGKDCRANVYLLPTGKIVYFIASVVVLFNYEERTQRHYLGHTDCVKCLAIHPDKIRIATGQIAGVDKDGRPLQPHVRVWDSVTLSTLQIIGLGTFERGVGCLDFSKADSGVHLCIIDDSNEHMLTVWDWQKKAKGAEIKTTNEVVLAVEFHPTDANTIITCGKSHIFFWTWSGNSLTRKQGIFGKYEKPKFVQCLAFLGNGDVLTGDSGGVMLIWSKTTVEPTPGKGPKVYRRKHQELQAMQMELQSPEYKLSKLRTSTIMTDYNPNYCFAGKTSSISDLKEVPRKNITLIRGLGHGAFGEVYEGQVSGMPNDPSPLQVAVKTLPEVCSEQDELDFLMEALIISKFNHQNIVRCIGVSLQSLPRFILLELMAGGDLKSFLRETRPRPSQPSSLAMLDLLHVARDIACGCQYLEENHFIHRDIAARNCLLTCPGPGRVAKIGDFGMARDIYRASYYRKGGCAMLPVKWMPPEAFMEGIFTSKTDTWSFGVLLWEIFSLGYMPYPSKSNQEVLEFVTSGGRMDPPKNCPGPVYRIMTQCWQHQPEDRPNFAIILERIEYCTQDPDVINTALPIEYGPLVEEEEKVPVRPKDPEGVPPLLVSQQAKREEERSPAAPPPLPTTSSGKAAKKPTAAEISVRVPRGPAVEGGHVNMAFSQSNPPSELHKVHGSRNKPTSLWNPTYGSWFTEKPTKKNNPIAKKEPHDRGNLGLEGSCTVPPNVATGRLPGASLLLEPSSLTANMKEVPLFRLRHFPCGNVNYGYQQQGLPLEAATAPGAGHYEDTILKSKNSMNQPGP

The term Ki denotes a measure of affinity in units of concentration, obtained from inhibition or displacement. In the case of `Cc1n[nH]c(C)c1-c1cnc(N)c(O[C@H](C)c2cc(F)ccc2F)c1` [Example 48, 3-[(1R)-(2,5-difluorophenyl)-ethoxy]-5-(3,5-dimethyl-1H-pyrazol-4-yl)pyridin-2-amine], the Ki in experiment [1] is 1.56 nM.

Usually IC50 stands for the midpoint of a concentration-inhibition curve. As to `CC(Oc1cc(-c2ccnn2C)cnc1N)c1cc(F)ccc1-c1nccn1C` (stereo not drawn) [Example 63, 3-{1-[5-Fluoro-2-(1-methyl-1H-imidazol-2-yl)-phenyl]ethoxy}-5-(2-methyl-2H-pyrazol-3-yl)-pyridin-2-ylamine], the Ki in experiment [1] came out at 67 nM. In experiment [2], this compound yielded an IC50 of 2350 nM.

As to `C[C@@H](Oc1nc(-c2ccc(C(N)=O)nc2)cnc1N)c1cc(F)ccc1-n1nccn1` [Example 64, 5-(5-amino-6-{(1R)-1-[5-fluoro-2-(2H-1,2,3-triazol-2-yl)phenyl]ethoxy}pyrazin-2-yl)pyridine-2-carboxamide], the Ki in experiment [1] was 2.4 nM. This compound gave an IC50 in experiment [2] of 123 nM.

Consider `Cc1n[nH]cc1-c1cnc(N)c(OC(C)c2cc(F)ccc2N2CCCC2=O)n1` (stereo not drawn) [Example 65, 1-[2-(1-{[3-amino-6-(3-methyl-1H-pyrazol-4-yl)pyrazin-2-yl]oxy}ethyl)-4-fluorophenyl]pyrroli-din-2-one], for which the Ki in experiment [1] amounted to 5.1 nM. Further, 193 nM corresponded to half-maximal inhibition in experiment [2] (IC50).

Regarding `Cc1n[nH]cc1-c1cnc(N)c(O[C@H](C)c2cc(F)ccc2-n2nccn2)n1` [Example 67, 3-{(1R)-1-[5-fluoro-2-(2H-1,2,3-triazol-2-yl)phenyl]ethoxy}-5-(3-methyl-1H-pyrazol-4-yl)pyrazin-2-amine], the Ki in experiment [1] stood at 0.56 nM. This compound also yielded an IC50 in experiment [2] of 40.9 nM.

As to `COc1ccc(F)cc1[C@@H](C)Oc1nc(-c2ccc([C@H](C)N)cc2)cnc1N` [Example 68, 5-{4-[(1S)-1-aminoethyl]phenyl}-3-[(1R)-1-(5-fluoro-2-methoxyphenyl)eth-oxy]pyrazin-2-amine], in experiment [1], the Ki was less than 0.2 nM. The compound further displayed an IC50 in experiment [2] of 4.5 nM.

As to `COc1ncccc1-c1cnc(N)c(OC(C)c2cc(F)ccc2N2CCCC2=O)n1` (stereo not drawn) [Example 69, 1-[2-(1-{[3-amino-6-(2-methoxypyridin-3-yl)pyrazin-2-yl]oxy}ethyl)-4-fluorophenyl]pyrroli-din-2-one], the Ki in experiment [1] was found to be 1.1 nM. The same compound showed an IC50 in experiment [2] of 52.6 nM.

`C[C@@H](Oc1nc(-c2ccnc(N3CCN(C)CC3)c2)cnc1N)c1cc(F)ccc1-n1nccn1` [Example 70, 3-{(1R)-1-[5-fluoro-2-(2H-1,2,3-triazol-2-yl)phenyl]ethoxy}-5-[2-(4-methylpiperazin-1-yl)pyridin-4-yl]pyrazin-2-amine]: the Ki in experiment [1] was less than 0.2 nM. In experiment [2], this compound showed an IC50 of 5.48 nM.

On to `C[C@@H](Oc1nc(-c2cnn(C3CCNCC3)c2)cnc1N)c1cc(F)ccc1-n1nccn1` [Example 71, 3-{(1R)-1-[5-fluoro-2-(2H-1,2,3-triazol-2-yl)phenyl]ethoxy}-5-[1-(piperidin-4-yl)-1H-pyrazol-4-yl]pyrazin-2-amine], for which the Ki in experiment [1] was less than 0.2 nM. For the same compound, half-maximal inhibition in experiment [2] (IC50) was put at 30.3 nM.

As for `C[C@@H](Oc1nc(-c2cccc(S(C)(=O)=O)c2)cnc1N)c1cc(F)ccc1-n1nccn1` [Example 72, 3-{(1R)-1-[5-fluoro-2-(2H-1,2,3-triazol-2-yl)phenyl]ethoxy}-5-[3-(methylsulfonyl)phen-yl]pyrazin-2-amine], the inhibitory constant (Ki) in experiment [1] was found to be 0.24 nM. In experiment [2], the IC50 is 10.4 nM.

Turning to `C[C@@H](Oc1cc(-c2ccnc(N3CCN(C)CC3)c2)cnc1N)c1cc(F)ccc1-n1nccn1` [Example 73, 5-{(1R)-1-[5-fluoro-2-(2H-1,2,3-triazol-2-yl)phenyl]ethoxy}-2′-(4-methylpiperazin-1-yl)-3,4′-bipyridin-6-amine], in experiment [1], the Ki was less than 0.2 nM. The compound further came in with an IC50 in experiment [2] of 6.73 nM.

As for `C[C@@H](Oc1cc(-c2cnn(C3CCNCC3F)c2)cnc1N)c1cc(F)ccc1-n1nccn1` (stereo partly drawn) [Example 74, 5-[1-(3-fluoropiperidin-4-yl)-1H-pyrazol-4-yl]-3-{(1R)-1-[5-fluoro-2-(2H-1,2,3-triazol-2-yl)phenyl]ethoxy} pyridin-2-amine], in experiment [1], the Ki was less than 0.2 nM. For the same compound, the IC50 in experiment [2] stood at 6.77 nM.

Turning to `C[C@@H](Oc1cc(-c2cnc3c(c2)C(C)(C)C(=O)N3)cnc1N)c1cc(F)ccc1-n1nccn1` [Example 75, 5-(6-amino-5-{(1R)-1-[5-fluoro-2-(2H-1,2,3-triazol-2-yl)phenyl]ethoxy}pyridin-3-yl)-3,3-dimethyl-1,3-dihydro-2H-pyrrolo[2,3-b]pyridin-2-one], the Ki in experiment [1] was 0.341 nM. Besides, the midpoint of inhibition in experiment [2], the IC50, lay at 24.6 nM.

For `CC(C)n1cc(-c2cnc(N)c(O[C@H](C)c3cc(F)ccc3-n3nccn3)c2)cn1` [Example 76, 3-{(1R)-1-[5-fluoro-2-(2H-1,2,3-triazol-2-yl)phenyl]ethoxy}-5-[1-(propan-2-yl)-1H-pyrazol-4-yl]pyridin-2-amine], the Ki in experiment [1] came out at 0.216 nM. The compound also showed an IC50 in experiment [2] of 25.5 nM.

Regarding `CC(O)Cn1cc(-c2cnc(N)c(O[C@H](C)c3cc(F)ccc3-n3nccn3)c2)cn1` (stereo partly drawn) [Example 77, 1-[4-(6-amino-5-{(1R)-1-[5-fluoro-2-(2H-1,2,3-triazol-2-yl)phenyl]ethoxy}pyridin-3-yl)-1H-pyrazol-1-yl]propan-2-ol], the Ki in experiment [1] amounted to 0.2 nM. For the same compound, in experiment [2], the IC50 amounted to 15.3 nM.

Regarding `CC1CNc2ncc(-c3cnc(N)c(O[C@H](C)c4cc(F)ccc4-n4nccn4)c3)cc2O1` (stereo partly drawn) [Example 79, 3-{(1R)-1-[5-fluoro-2-(2H-1,2,3-triazol-2-yl)phenyl]ethoxy}-5-(2-methyl-3,4-dihydro-2H-pyrido[3,2-b][1,4]oxazin-7-yl)pyridin-2-amine], the Ki in experiment [1] was less than 0.2 nM. Half-maximal inhibition in experiment [2] (IC50) required 15.5 nM.

Consider `C[C@@H](Oc1cc(-c2cnn(C3CCNCC3)c2)cnc1N)c1cc(F)ccc1-n1nccn1` [Example 80, 3-{(1R)-1-[5-fluoro-2-(2H-1,2,3-triazol-2-yl)phenyl]ethoxy}-5-[1-(piperidin-4-yl)-1H-pyrazol-4-yl]pyridin-2-amine], for which the Ki in experiment [1] is less than 0.2 nM. The concentration for half-maximal inhibition (IC50) in experiment [2] turned out to be 6.58 nM.

With `C[C@@H](Oc1cc(-c2cnn(C3CCNC3)c2)cnc1N)c1cc(F)ccc1-n1nccn1` (stereo partly drawn) [Example 81, 3-{(1R)-1-[5-fluoro-2-(2H-1,2,3-triazol-2-yl)phenyl]ethoxy}-5-[1-(pyrrolidin-3-yl)-1H-pyrazol-4-yl]pyridin-2-amine], in experiment [1], the Ki is less than 0.2 nM. For the same compound, inhibition in experiment [2] was half-maximal at 9.9 nM (IC50).

Take `CCn1cc(-c2cnc(N)c(O[C@H](C)c3cc(F)ccc3-n3nccn3)c2)ccc1=O` [Example 82, 6′-amino-1-ethyl-5′-{(1R)-1-[5-fluoro-2-(2H-1,2,3-triazol-2-yl)phenyl]ethoxy}-3,3′-bipyridin-6(1H)-one]: the Ki in experiment [1] is less than 0.2 nM. The IC50 in experiment [2] worked out at 75.3 nM.

For the compound `Cc1nn(CC#N)c(C)c1-c1cnc(N)c(O[C@H](C)c2cc(F)ccc2-n2nccn2)c1` [Example 84, [4-(6-amino-5-{(1R)-1-[5-fluoro-2-(2H-1,2,3-triazol-2-yl)phenyl]ethoxy}pyridin-3-yl)-3,5-dimethyl-1H-pyrazol-1-yl]acetonitrile], the Ki in experiment [1] is less than 0.2 nM. Besides, in experiment [2], the IC50 was found to be 13.2 nM.

With `C[C@@H](Oc1cc(-c2cccc3c2CNC3=O)cnc1N)c1cc(F)ccc1-n1nccn1` [Example 85, 4-(6-Amino-5-((R)-1-(5-fluoro-2-(2H-1,2,3-triazol-2-yl)phenyl)ethoxy)pyridin-3-yl)isoindolin-1-one], the inhibition constant (Ki) in experiment [1] was 0.37 nM. In experiment [2], this compound came in with an IC50 of 6.81 nM.

As for `C[C@@H](Oc1cc(-c2cccc(CS(C)(=O)=O)c2)cnc1N)c1cc(F)ccc1-n1nccn1` [Example 87, 3-{(1R)-1-[5-fluoro-2-(2H-1,2,3-triazol-2-yl)phenyl]ethoxy}-5-{3-[(methylsulfonyl)methyl]phenyl}pyridin-2-amine], the Ki in experiment [1] is less than 0.2 nM. This compound registered an IC50 in experiment [2] of 4.14 nM.

As to `C[C@@H](N)c1ccc(-c2cnc(N)c(O[C@H](C)c3cc(F)ccc3-n3nccn3)c2)cc1` [Example 88, 5-{4-[(1R)-1-aminoethyl]phenyl}-3-{(1R)-1-[5-fluoro-2-(2H-1,2,3-triazol-2-yl)phenyl]ethoxy}-pyridin-2-amine], the Ki in experiment [1] is less than 0.2 nM. Further, the IC50 in experiment [2] worked out at 2.61 nM.

As to `C[C@@H](Oc1cc(-c2ccc3c(c2)CNC3=O)cnc1N)c1cc(F)ccc1-n1nccn1` [Example 89, 5-(6-amino-5-{(1R)-1-[5-fluoro-2-(2H-1,2,3-triazol-2-yl)phenyl]ethoxy}pyridin-3-yl)-2,3-dihydro-1H-isoindol-1-one], in experiment [1], the Ki worked out at 0.22 nM. In experiment [2], this compound came in with an IC50 of 43.6 nM.

With `CNC(=O)c1nc(C)c(-c2cnc(N)c(O[C@H](C)c3cc(F)ccc3-n3nccn3)c2)s1` [Example 90, 5-(6-amino-5-{(1R)-1-[5-fluoro-2-(2H-1,2,3-triazol-2-yl)phenyl]ethoxy}pyridin-3-yl)-N,4-dimethyl-1,3-thiazole-2-carboxamide], in experiment [1], the Ki is 1.2 nM. This compound also showed an IC50 in experiment [2] of 58.9 nM.

For `Cc1nn(CC(O)CO)c(C)c1-c1cnc(N)c(O[C@H](C)c2cc(F)ccc2-n2nccn2)c1` (stereo partly drawn) [Example 91, 3-[4-(6-amino-5-{(1R)-1-[5-fluoro-2-(2H-1,2,3-triazol-2-yl)phenyl]ethoxy}pyridin-3-yl)-3,5-dimethyl-1H-pyrazol-1-yl]propane-1,2-diol], the Ki in experiment [1] was less than 0.2 nM. The compound further had an IC50 in experiment [2] of 0.793 nM.

As to `CNC(=O)c1ncc(-c2cnc(N)c(O[C@H](C)c3cc(F)ccc3-n3nccn3)c2)cn1` [Example 92, 5-(6-amino-5-{(1R)-1-[5-fluoro-2-(2H-1,2,3-triazol-2-yl)phenyl]ethoxy}pyridin-3-yl)-N-methylpyrimidine-2-carboxamide], in experiment [1], the Ki came out at 7.2 nM. For the same compound, the IC50 in experiment [2] worked out at 729 nM.

In turn, `COCc1ccc(-c2cnc(N)c(OC(C)c3cc(F)ccc3OC)c2)cc1S(C)(=O)=O` (stereo not drawn) [Example 135, 3-[1-(5-fluoro-2-methoxyphenyl)ethoxy]-5-[4-(methoxymethyl)-3-(methylsulfonyl)phenyl]pyridin-2-amine] had an IC50 in experiment [2] of 4.15 nM.
